# Reference: ChEMBL document CHEMBL5532643, “Design and synthesis of etrasimod derivatives as potent antibacterial agents against Gram-positive bacteria” (Eur J Med Chem, 2024)
# Values joined by “and” are separate entries in the source; they are usually repeats but may differ in a detail not shown here. Identical values can stand only once. Active and inactive are the calls of the source. The calls are words filed in the database; no cut-off is given here.
# Legend:
# [1] = tested on: Staphylococcus aureus; test: Synergistic antibacterial activity against Staphylococcus aureus ATCC 25923 assessed as fractional inhibitory concentration index incubated for 18 to 20 hrs in presence of gentamicin by checkboard assay; type: functional; settings: time 18-20 hrs
# [2] = tested on: Pseudomonas aeruginosa; test: Antibacterial activity against Pseudomonas aeruginosa ATCC 15442 assessed as reduction in bacterial growth incubated for 18 to 20 hrs by broth microdilution assay; type: functional; settings: time 18-20 hrs
# [3] = tested on: Staphylococcus aureus; test: Bactericidal activity against Staphylococcus aureus ATCC 25923 assessed as reduction in bacterial growth at 0.5 to 8 times MIC incubated for 24 hrs by time-kill assay; type: functional
# [4] = tested on: Staphylococcus aureus; test: Antimicrobial activity against Staphylococcus aureus ATCC 25923 infected in Caenorhabditis elegans AU37 assessed as reduction in bacterial burden at 20 uM incubated for 18 hrs; type: functional; parameters: scale not given: the % may be the effect or the level left
# [5] = tested on: Staphylococcus aureus; test: Bactericidal activity against Staphylococcus aureus ATCC 25923 assessed as log reduction in colony forming units at 0.5 to 8 times MIC measured after 24 hrs by time kill-assay; type: functional
# [6] = tested on: Staphylococcus aureus; test: Antibacterial activity against Staphylococcus aureus ATCC 25923 assessed as inhibition of bacterial growth at 40 uM incubated for 18 to 24 hrs by broth microdilution assay relative to control; type: functional; settings: time 18-24 hrs
# [7] = tested on: Staphylococcus epidermidis; test: Antibacterial activity against […] Staphylococcus epidermidis RP62A assessed as reduction in bacterial growth incubated for 18 to 20 hrs by broth microdilution assay; type: functional; settings: time 18-20 hrs
# [8] = tested on: Enterococcus faecalis; test: Synergistic antibacterial activity against Enterococcus faecalis ATCC 29212 assessed as vancomycin MIC incubated for 18 to 20 hrs by checkboard assay; type: functional; settings: time 18-20 hrs
# [9] = tested on: Staphylococcus aureus; test: Synergistic antibacterial activity against Staphylococcus aureus ATCC 25923 incubated for 18 to 20 hrs in presence of gentamicin by checkboard assay; type: functional; settings: time 18-20 hrs
# [10] = tested on: Staphylococcus aureus; test: Synergistic antibacterial activity against methicillin-resistant Staphylococcus aureus ATCC 43300 assessed as fractional inhibitory concentration index incubated for 18 to 20 hrs in presence of gentamicin by checkboard assay; type: functional; settings: time 18-20 hrs
# [11] = tested on: Enterococcus faecalis; test: Bactericidal activity against Enterococcus faecalis ATCC 29212 assessed as reduction in bacterial growth at 0.5 to 8 times MIC incubated for 24 hrs by time-kill assay; type: functional
# [12] = tested on: Enterococcus faecalis; test: Synergistic antibacterial activity against Enterococcus faecalis ATCC 29212 incubated for 18 to 20 hrs in presence of ciprofloxacin by checkboard assay; type: functional; settings: time 18-20 hrs
# [13] = tested on: Enterococcus faecalis; test: Synergistic antibacterial activity against Enterococcus faecalis ATCC 29212 incubated for 18 to 20 hrs in presence of linezolid by checkboard assay; type: functional; settings: time 18-20 hrs
# [14] = tested on: Enterococcus faecalis; test: Synergistic antibacterial activity against Enterococcus faecalis ATCC 29212 assessed as fractional inhibitory concentration index incubated for 18 to 20 hrs in presence of ciprofloxacin by checkboard assay; type: functional; settings: time 18-20 hrs
# [15] = tested on: Enterococcus faecalis; test: Synergistic antibacterial activity against Enterococcus faecalis ATCC 29212 incubated for 18 to 20 hrs in presence of gentamicin by checkboard assay; type: functional; settings: time 18-20 hrs
# [16] = tested on: Staphylococcus aureus; test: Synergistic antibacterial activity against methicillin-resistant Staphylococcus aureus ATCC 43300 incubated for 18 to 20 hrs in presence of gentamicin by checkboard assay; type: functional; settings: time 18-20 hrs
# [17] = tested on: A549; test: Cytotoxicity against human A549 cells assessed as reduction in cell viability incubated for 24 hrs by resazurin staining based analysis; type: functional
# [18] = tested on: Staphylococcus aureus; test: Synergistic antibacterial activity against Staphylococcus aureus ATCC 25923 incubated for 18 to 20 hrs in presence of ciprofloxacin by checkboard assay; type: functional; settings: time 18-20 hrs
# [19] = tested on: A549; test: Cytotoxicity against human A549 cells assessed as reduction in cell viability at 100 uM incubated for 24 hrs by resazurin staining based analysis relative to control; type: functional
# [20] = tested on: Cell membrane; test: Induction of cytoplasmic membrane depolarization in Staphylococcus aureus ATCC 25923 assessed as increase in fluorescence intensity at 4 times MIC measured for 30 mins by DiSC3(5) dye based fluorescence method; type: cell membranes
# [21] = tested on: Staphylococcus aureus; test: Synergistic antibacterial activity against methicillin-resistant Staphylococcus aureus ATCC 43300 assessed as ciprofloxacin MIC incubated for 18 to 20 hrs by checkboard assay; type: functional; settings: time 18-20 hrs
# [22] = Selectivity index, ratio of CC50 for cytotoxicity against human THP-1 cells assessed as reduction in cell viability to MIC for antibacterial activity against methicillin-resistant Enterococcus faecalis assessed as reduction in bacterial growth; type: toxicity, cell-based; settings: read-out: Selectivity Index
# [23] = tested on: Staphylococcus aureus; test: Synergistic antibacterial activity against methicillin-resistant Staphylococcus aureus ATCC 43300 assessed as vancomycin MIC incubated for 18 to 20 hrs by checkboard assay; type: functional; settings: time 18-20 hrs
# [24] = tested on: Staphylococcus aureus; test: Antibacterial activity against Staphylococcus aureus ATCC 25923 assessed as reduction in bacterial growth incubated for 18 to 20 hrs by broth microdilution assay; type: functional; settings: time 18-20 hrs
# [25] = tested on: Staphylococcus aureus; test: Synergistic antibacterial activity against methicillin-resistant Staphylococcus aureus ATCC 43300 incubated for 18 to 20 hrs in presence of vancomycin by checkboard assay; type: functional; settings: time 18-20 hrs
# [26] = tested on: Staphylococcus aureus; test: Bactericidal activity against Staphylococcus aureus ATCC 25923 at 4 times MIC measured after 6 hrs by time kill-assay; type: functional, organism-based
# [27] = tested on: Staphylococcus aureus; test: Synergistic antibacterial activity against methicillin-resistant Staphylococcus aureus ATCC 43300 assessed as gentamicin MIC incubated for 18 to 20 hrs by checkboard assay; type: functional; settings: time 18-20 hrs
# [28] = tested on: Staphylococcus aureus; test: Synergistic antibacterial activity against Staphylococcus aureus ATCC 25923 assessed as linezolid MIC incubated for 18 to 20 hrs by checkboard assay; type: functional; settings: time 18-20 hrs
# [29] = tested on: Staphylococcus aureus; test: Synergistic antibacterial activity against Staphylococcus aureus ATCC 25923 incubated for 18 to 20 hrs in presence of vancomycin by checkboard assay; type: functional; settings: time 18-20 hrs
# [30] = Toxicity in Caenorhabditis elegans AU37 assessed as worms survival at 10 uM measured after 72 hrs
# [31] = tested on: Enterococcus faecalis; test: Synergistic antibacterial activity against Enterococcus faecalis ATCC 29212 assessed as linezolid MIC incubated for 18 to 20 hrs by checkboard assay; type: functional; settings: time 18-20 hrs
# [32] = tested on: Staphylococcus aureus; test: Synergistic antibacterial activity against Staphylococcus aureus ATCC 25923 assessed as fractional inhibitory concentration index incubated for 18 to 20 hrs in presence of ciprofloxacin by checkboard assay; type: functional; settings: time 18-20 hrs
# [33] = tested on: Enterococcus faecalis; test: Synergistic antibacterial activity against Enterococcus faecalis ATCC 29212 assessed as fractional inhibitory concentration index incubated for 18 to 20 hrs in presence of gentamicin by checkboard assay; type: functional; settings: time 18-20 hrs
# [34] = Selectivity index, ratio of CC50 for cytotoxicity against human THP-1 cells assessed as reduction in cell viability to MIC for antibacterial activity against Staphylococcus aureus assessed as reduction in bacterial growth; type: toxicity, cell-based; settings: read-out: Selectivity Index
# [35] = tested on: Enterococcus faecalis; test: Antibacterial activity against Enterococcus faecalis ATCC 29212 assessed as reduction in bacterial growth incubated for 18 to 20 hrs by broth microdilution assay; type: functional; settings: time 18-20 hrs
# [36] = tested on: Staphylococcus aureus; test: Bactericidal activity against methicillin-resistant Staphylococcus aureus assessed as reduction in bacterial growth at 0.5 to 8 times MIC incubated for 24 hrs by time-kill assay; type: functional
# [37] = tested on: Staphylococcus aureus; test: Antimicrobial activity against methicillin-resistant Staphylococcus aureus ATCC 43300 infected in Caenorhabditis elegans AU37 assessed as reduction in bacterial burden at 20 uM incubated for 18 hrs; type: functional; parameters: scale not given: the % may be the effect or the level left
# [38] = tested on: Enterococcus faecium; test: Antibacterial activity against vancomycin-resistant Enterococcus faecium ATCC 700221 assessed as reduction in bacterial growth incubated for 18 to 20 hrs by broth microdilution assay; type: functional; settings: time 18-20 hrs
smiles,measurement,setting,value
O=C(O)c1cc2cc(OCc3ccc(C4CCCCC4)c(C(F)(F)F)c3)ccc2[nH]1,fractional inhibitory concentration index (FICI),[1],0.5
same,MIC,[2],> 200 µM
same,MBC,[3],5 µM
same,Activity,[4],>85%
same,log(activity),[5],>5
same,inhibition at 40 µM,[6],≤ 90%
same,MIC,[7],2.5 µM
same,MIC,[8],2.5 µM
same,MIC,[9],1.25 µM
same,fractional inhibitory concentration index (FICI),[10],<=0.5
same,MBC,[11],5 µM
same,MIC,[12],1.25 µM
same,MIC,[13],5 µM
same,fractional inhibitory concentration index (FICI),[14],0.75
same,MIC,[15],1.25 µM
same,MIC,[16],0.625 µM
same,CC50,[17],> 100 µM
same,MIC,[18],2.5 µM
same,Activity,[19],~20%
same,Activity,[20],inactive
same,MIC,[21],1.25 µM
same,selectivity ratio,[22],> 12
same,MIC,[23],1.25 µM
same,MIC,[24],5 µM and 2.1 µg/mL
same,MIC,[25],2.5 µM
same,Activity,[26],Active
same,MIC,[27],32 µg/mL
same,MIC,[28],5 µM
same,MIC,[29],2.2 µM
same,Activity,[30],Non-Toxic
same,MIC,[31],10 µM
same,fractional inhibitory concentration index (FICI),[32],0.625
same,fractional inhibitory concentration index (FICI),[33],0.375
same,selectivity ratio,[34],> 12
same,MIC,[35],5 µM
same,MBC,[36],5 µM
same,Activity,[37],88%
same,MIC,[38],5 µM
